Where a name gives a salt, the structure may show the parent alone.
Molecular target: GABAA receptor complex (benzodiazepine modulatory unit)
Experiment: In vitro inhibition of 3H-flunitrazepam (3H-FNM) binding
Design: species or system rat
Details: inhibition of specific binding of 3H-FNM (1 nM), cerebral cortex membranes from male Wistar rats, 40 min at 2° C.
Method: In vitro Inhibition of ^3H-flunitrazepam (^3H-FNM) Binding
The GABA recognition site and the benzodiazepine modulatory unit can selectively be labelled with ^3H-flunitrazepam.
Preparations are performed at 0-4° C. unless otherwise indicated. Cerebral cortex from male Wistar rats (150-200 g) is homogenised for 5-10 sec in 20 ml Tris-HCl (30 mM, pH 7.4) using an Ultra-Turrax homogeniser. The suspension is centrifuged at 27,000×g for 15 min and the pellet is washed three times with buffer (centrifuged at 27,000×g for 10 min). The washed pellet is homogenized in 20 ml of buffer and incubated on a water bath (37° C.) for 30 min to remove endogenous GABA and then centrifuged for 10 min at 27,000×g. The pellet is then homogenized in buffer and centrifuged for 10 min at 27,000×g. The final pellet is resuspended in 30 ml buffer and the preparation is frozen and stored at −20° C.
The membrane preparation is thawed and centrifuged at 2° C. for 10 min at 27,000×g. The pellet is washed twice with 20 ml 50 mM Tris-citrate, pH 7.1 using an Ultra-Turrax homogeniser and centrifuged for 10 min at 27,000×g. The final pellet is resuspended in 50 mM Tris-citrate, pH 7.1 (500 ml buffer per g of original tissue), and then used for binding assays. Aliquots of 0.5 ml tissue are added to 25 μl of test solution and 25 μl of ^3H-FNM (1 nM, final concentration), mixed and incubated for 40 min at 2° C. Non-specific binding is determined using Clonazepam (1 μM, final concentration). After incubation the samples are added 5 ml of ice-cold buffer and poured directly onto Whatman GF/C glass fibre filters under suction and immediately washed with 5 ml ice-cold buffer. The amount of radioactivity on the filters is determined by conventional liquid scintillation counting. Specific binding is total binding minus non-specific binding.
25-75% inhibition of specific binding must be obtained, before calculation of an IC50.
The test value will be given as IC50 (the concentration (μM) of the test substance which inhibits the specific binding of ^3H-FNM by 50%). […]

First: CC(=NO)c1ccc2c(c1)ncn2-c1cccc(COCc2ncnn2C)c1 [Compound 22a, 1-{1-[3-(2-Methyl-2H-[1,2,4]triazol-3-ylmethoxymethyl)-phenyl]-1H-benzoimidazol-5-yl}-ethanone oxime]
Second: CC(O)c1ccc2c(c1)ncn2-c1cccc(COCc2ncnn2C)c1 (centres unmarked) [Compound 23, 1{-1-[3-(2-Methyl-2H-[1,2,4]triazol-3-ylmethoxymethyl)-phenyl]-1H-benzoimidazol-5-yl}-ethanol]
The IC50 of the first is 10-fold lower: 2.1 nM for the first, 22 nM for the second. The first is the more potent here.

Work on `CCOC(C)c1ccc2c(c1)ncn2-c1cccc(COCc2ncnn2C)c1` (centres unmarked) [Compound 24b, 5-(1-Ethoxy-ethyl)-1-[3-(2-methyl-2H-[1,2,4]triazol-3-ylmethoxymethyl)-phenyl]-1H-benzoimidazole] yielded an IC50 of 9.2 nM.

Tested on: not given
Experiment: not given
Details: not given

Compared with `c1ccc(COCc2cccc(-n3cnc4cc(CN5CCCC5)ccc43)c2)nc1`, `ON=Cc1ccc2c(c1)ncn2-c1cccc(COCc2ccccn2)c1` is lower in melting point: 192 to 194 °C for the first, 154 to 154.8 °C for the second.

First: ON=Cc1ccc2c(c1)ncn2-c1cccc(CNCc2ccc(F)c(F)c2)c1
Second: CCOC(=O)c1ccc2c(c1)ncn2-c1cccc(COCc2ccccn2)c1
The melting point of the first is higher: 165 to 167 °C for the first, 99.8 to 101.2 °C for the second.

With `CC(=NO)c1ccc2c(c1)ncn2-c1cccc(COCc2ncnn2C)c1` (as salt: chloride) [Compound 22a, 1-{1-[3-(2-Methyl-2H-[1,2,4]triazol-3-ylmethoxymethyl)-phenyl]-1H-benzoimidazol-5-yl}-ethanone oxime] the melting point was 178.8 to 180.4 °C.
